Measured values reported in patent US12485121B2, “Antiviral agents for the treatment and prevention of HIV infection” (Pharmasyntez, Joint Stock Company, priority 2020, dated 2025).

These compounds were tested on HIV-1 subtype A strain 12RU 69831 (assay: Inhibition of HIV-1 reproduction / protection of infected MT-4 cells (living cell concentration, p24 production)). Conditions: Human immunodeficiency virus 1, MT4, MT-4 cells infected with HIV-1 at a constant virus dose of 300 CCID50; read-out: Activity against HIV-1 12RU 69831 strain (subtype A).
Assay type: cell-based
Experimental: Evaluation of HIV reproduction inhibition/protection of human cells by anti-HIV products of the present invention was conducted by measuring change in living cells concentration in experimental wells with MT-4 cells infected with HIV-1, as well as by the production of viral protein p24 with adding different concentrations of compounds according to the present invention. Antiviral activity of products against HIV-1 subtype A strain 12RU 69831 was determined, when the cell culture was infected with a constant dose of virus, corresponding to 300 CCID50.

IC50 [µM] | SMILES
5.8 | Cc1cc(C#N)cc(C)c1Oc1nc(Nc2ccc(C#N)cc2)nc2c1CCN(Cc1ccc(O)cc1)CC2 [BB0274075, 4-((2-((4-Cyanophenyl)amino)-7-(4-hydroxybenzyl)-6,7,8,9-tetrahydro-5H-pyrimido[4,5-d]azepine-4-yl)oxy)-3,5-dimethylbenzonitrile]
493 | Cc1cc(C#N)cc(C)c1Oc1nc(Nc2ccc(C#N)cc2)nc2c1CCN(C(=O)[C@H]1CCCN1C(=O)OC(C)(C)C)CC2 [BB0274064, (R)-Tert-butyl 2-(4-(4-cyano-2,6-dimethylphenoxy)-2-((cyanophenyl)amino)-6,7,8,9-tetrahydro-5H-pyrimido[4,5-d]azepine-7-carbonyl)pyrrolidine-1-carboxylate]
117 | Cc1cc(C#N)cc(C)c1Oc1nc(Nc2ccc(C#N)cc2)nc2c1CCN(C(=O)OC(C)(C)C)CC2 [BB0273972, Tert-butyl 4-(4-cyano-2,6-dimethylphenoxy)-2-((4-cyanophenyl)amino)-8,9-dihydro-5H-pyrimido[4,5-d]azepine-7(6H)-carboxylate]
0.324 | Cc1cc(C#N)cc(C)c1Oc1nc(Nc2ccc(C#N)cc2)nc2c1CCN(CCN1CCOCC1)CC2 [BB0274118, 4-((2-((4-Cyanophenyl)amino)-7-(2-morpholineethyl)-6,7,8,9-tetrahydro-5H-pyrimido[4,5-d]azepine-4-yl)oxy)-3,5-dimethylbenzonitrile]
8.8 | Cc1cc(C#N)cc(C)c1Oc1nc(Nc2ccc(C#N)cc2)nc2c1CN(C(=O)[C@H](C)NC(=O)OC(C)(C)C)CC2 [BB0274101, (S)-Tert-butyl (1-(4-(4-cyano-2,6-dimethylphenoxy)-2-((4-cyanophenyl)amino)-7,8-dihydropyrido[4,3-d]pyrimidine-6(5H)-yl)-1-oxopropane-2-yl)carbamate]
342 | Cc1cc(C#N)cc(C)c1Oc1nc(Nc2ccc(C#N)cc2)nc2c1CN(C(=O)[C@H](Cc1ccc(O)cc1)NC(=O)OC(C)(C)C)CC2 [BB0274124, (S)-Tert-butyl (1-(4-(4-cyano-2,6-dimethylphenoxy)-2-((4-cyanophenyl)amino)-7,8-dihydropyrido[4,3-d]pyrimidine-6(5H)-yl)-3-(4-hydroxyphenyl)-1-oxopropane-2-yl)carbamate]
4880 | Cc1cc(C#N)cc(C)c1Oc1nc(Nc2ccc(C#N)cc2)nc2c1CCN(Cc1ccncc1)CC2 [BB0274016, 4-((2-((4-Cyanophenyl)amino)-7-(pyridine-4-ylmethyl)-6,7,8,9-tetrahydro-5H-pyrimido[4,5-d]azepine-4-yl)oxy)-3,5-dimethylbenzonitrile]
4.07 | Cc1cc(C#N)cc(C)c1Oc1nc(Nc2ccc(C#N)cc2)nc2c1CCN(C1CCOCC1)CC2 [BB0274072, 4-((2-((4-Cyanophenyl)amino)-7-(tetrahydro-2H-pyran-4-yl)-6,7,8,9-tetrahydro-5H-pyrimido[4,5-d]azepine-4-yl)oxy)-3,5-dimethylbenzonitrile]
533 | Cc1cc(C#N)cc(C)c1Oc1nc(Nc2ccc(C#N)cc2)nc2c1CN(C(=O)[C@@H](N)Cc1ccccc1)CC2 [BB0274111, (S)-4-((6-(2-Amino-3-phenylpropanoyl)-2-((4-cyanophenyl)amino)-5,6,7,8-tetrahydropyrido[4,3-d]pyrimidine-4-yl)oxy)-3,5-dimethylbenzonitrile]
33.8 | Cc1cc(C#N)cc(C)c1Oc1nc(Nc2ccc(C#N)cc2)nc2c1CN(C(=O)c1cnccn1)CC2 [BB0274100, 4-((2-((4-Cyanophenyl)amino)-6-(pyrazine-2-carbonyl)-5,6,7,8-tetrahydropyrido[4,3-d]pyrimidine-4-yl)oxy)-3,5-dimethylbenzonitrile]
1.04 | Cc1cc(C#N)cc(C)c1Oc1nc(Nc2ccc(C#N)cc2)nc2c1CN(C(=O)[C@@H](N)CC(C)C)CC2 [BB0274129, (S)-4-((6-(2-Amino-4-methylpentanoyl)-2-((4-cyanophenyl)amino)-5,6,7,8-tetrahydropyrido[4,3-d]pyrimidine-4-yl)oxy)-3,5-dimethylbenzonitrile]
37 | Cc1cc(C#N)cc(C)c1Oc1nc(Nc2ccc(C#N)cc2)nc2c1CCN(C1CCN(C(=O)OC(C)(C)C)CC1)CC2 [BB0274027, Tert-butyl 4-(4-(4-cyano-2,6-dimethylphenoxy)-2-((4-cyanophenyl)amino)-8,9-dihydro-5H-pyrimido[4,5-d]azepine-7(6H)-yl)piperidine-1-carboxylate]
82.1 | Cc1cc(C#N)cc(C)c1Oc1nc(Nc2ccc(C#N)cc2)nc2c1CN(C(=O)[C@@H](N)Cc1ccc(O)cc1)CC2 [BB0274125, (S)-4-((6-(2-Amino-3-(4-hydroxyphenyl)propanoyl)-2-((4-cyanophenyl)amino)-5,6,7,8-tetrahydropyrido[4,3-d]pyrimidine-4-yl)oxy)-3,5-dimethylbenzonitrile]
0.046 | Cc1cc(C#N)cc(C)c1Oc1nc(Nc2ccc(C#N)cc2)nc2c1CN(C(=O)C1CCCN1)CC2 (stereo not drawn) [BB0274098, 4-((2-((4-Cyanophenyl)amino)-6-(pyrrolidine-2-carbonyl)-5,6,7,8-tetrahydropyrido[4,3-d]pyrimidine-4-yl)oxy)-3,5-dimethylbenzonitrile]

Same assay, conditions: MT-4 cells infected with HIV-1 at a constant virus dose of 300 CCID50; read-out: Activity against HIV-1 12RU 69831 strain (subtype A)

IC50 [µM] | SMILES
0.00583 | Cc1cc(C#N)cc(C)c1Oc1nc(Nc2ccc(C#N)cc2)nc2c1CCNCC2 [BB0273976, 4-((2-((4-Cyanophenyl)amino)-6,7,8,9-tetrahydro-5H-pyrimido[4,5-d]azepine-4-yl)oxy)-3,5-dimethylbenzonitrile]
